# In patent US9334289B2, “Cephem compound having catechol or pseudo-catechol structure” (SHIONOGI & CO., LTD., priority 2011, dated 2016):
# Experiments:
# Assay type in all cases: cell-based
# [1] = test system: P. aeruginosa SR27060; test: MIC, CLSI broth microdilution, Test Example 1; conditions: Pseudomonas aeruginosa, SR27060; IMP-1 MBL producing strain (carbapenem resistance strain); cation-adjusted Mueller Hinton broth containing human apo-transferrin; 5×10^5 cfu/mL; read-out: Minimum Inhibitory Concentration (MIC) P. aeruginosa SR27060
# Summary of the method: (§1)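 Read-out is the minimum inhibitory concentration (μg/mL), determined by the CLSI method with bacteria seeded at 5×10^5 cfu/mL into cation-adjusted Mueller Hinton medium supplemented with human apo-transferrin.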
# [2] = test system: P. aeruginosa SR24837; test: MIC, CLSI broth microdilution, Test Example 1; conditions: Pseudomonas aeruginosa, SR24837; PER-1 ESBL producing strain; cation-adjusted Mueller Hinton broth containing human apo-transferrin; 5×10^5 cfu/mL; read-out: Minimum Inhibitory Concentration (MIC) P. aeruginosa SR24837
# Summary of the method: as §1
# [3] = test system: K. pneumoniae ATCCBAA-1705; test: MIC, CLSI broth microdilution, Test Example 1; conditions: Klebsiella pneumoniae, ATCCBAA1705; KPC-2 carbapenemase producing strain; cation-adjusted Mueller Hinton broth containing human apo-transferrin; 5×10^5 cfu/mL; read-out: Minimum Inhibitory Concentration (MIC) K. pneumoniae ATCCBAA-1705
# Summary of the method: as §1
# [4] = test system: E. coli ATCCBAA-199; test: MIC, CLSI broth microdilution, Test Example 1; conditions: Escherichia coli, ATCCBAA199; SHV-3 ESBL producing strain; cation-adjusted Mueller Hinton broth containing human apo-transferrin; 5×10^5 cfu/mL; read-out: Minimum Inhibitory Concentration (MIC) E. coli ATCC BAA-199
# Summary of the method: as §1
# [5] = test system: E. coli ATCCBAA-200; test: MIC, CLSI broth microdilution, Test Example 1; conditions: Escherichia coli, ATCCBAA200; SHV-4 ESBL producing strain; cation-adjusted Mueller Hinton broth containing human apo-transferrin; 5×10^5 cfu/mL; read-out: Minimum Inhibitory Concentration (MIC) E. coli ATCC BAA-200
# Summary of the method: as §1
# [6] = test system: A. baumannii SR27323; test: MIC, CLSI broth microdilution, Test Example 1; conditions: Acinetobacter baumannii, SR27323; OXA-23, OXA-58 carbapenemase producing strain; cation-adjusted Mueller Hinton broth containing human apo-transferrin; 5×10^5 cfu/mL; read-out: Minimum Inhibitory Concentration (MIC) A. baumannii SR27323
# Summary of the method: as §1
# [7] = test system: P. aeruginosa SR24; test: MIC, CLSI broth microdilution, Test Example 1; conditions: Pseudomonas aeruginosa, SR24; Ceftazidime resistance strain; cation-adjusted Mueller Hinton broth containing human apo-transferrin; 5×10^5 cfu/mL; read-out: Minimum Inhibitory Concentration (MIC) P. aeruginosa SR24
# [8] = test system: P. aeruginosa SR01335; test: MIC, CLSI broth microdilution, Test Example 2; conditions: Pseudomonas aeruginosa, SR01335; VIM-1 like MBL producing strain (carbapenem resistance strain); cation-adjusted Iso-Sensitest broth containing human Apo-transferrin; 5×10^5 cfu/mL; read-out: Minimum Inhibitory Concentration (MIC) P. aeruginosa SR01335
# Summary of the method: (§2)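 Bacteria were inoculated at 5×10^5 cfu/mL into cation-adjusted Iso-Sensitest broth containing human Apo-transferrin. MICs (μg/mL) were then determined by broth microdilution following the CLSI method.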
# [9] = test system: E. coli SR01337; test: MIC, CLSI broth microdilution, Test Example 2; conditions: Escherichia coli, SR01337; TEM-1 ESBL producing strain; cation-adjusted Iso-Sensitest broth containing human Apo-transferrin; 5×10^5 cfu/mL; read-out: Minimum Inhibitory Concentration (MIC) E. coli SR01337
# Summary of the method: as §2
# [10] = test system: A. baumannii SR01331; test: MIC, CLSI broth microdilution, Test Example 2; conditions: Acinetobacter baumannii, SR01331; PER-1, OXA-23.51 ESBL- & OXA-type carbapenemase producing strain; cation-adjusted Iso-Sensitest broth containing human Apo-transferrin; 5×10^5 cfu/mL; read-out: Minimum Inhibitory Concentration (MIC) A. baumannii SR01331
# Summary of the method: as §2
# [11] = test system: E. coli ATCCBAA-196; test: MIC, CLSI broth microdilution, Test Example 2; conditions: Escherichia coli, ATCCBAA196; TEM-10 ESBL producing strain; cation-adjusted Iso-Sensitest broth containing human Apo-transferrin; 5×10^5 cfu/mL; read-out: Minimum Inhibitory Concentration (MIC) E. coli ATCC BAA-196
# Summary of the method: as §2
# [12] = test system: P. aeruginosa SR01332; test: MIC, CLSI broth microdilution, Test Example 2; conditions: Pseudomonas aeruginosa, SR01332; VIM-11 MBL producing strain (carbapenem resistance strain); cation-adjusted Iso-Sensitest broth containing human Apo-transferrin; 5×10^5 cfu/mL; read-out: Minimum Inhibitory Concentration (MIC) P. aeruginosa SR01332
# Summary of the method: as §2
# [13] = test system: E. cloacae NCTC13464; test: MIC, CLSI broth microdilution, Test Example 2; conditions: Enterobacter cloacae, NCTC13464; CTX-M group 9 ESBL producing strain; cation-adjusted Iso-Sensitest broth containing human Apo-transferrin; 5×10^5 cfu/mL; read-out: Minimum Inhibitory Concentration (MIC) E. cloacae NCTC 13464
# Summary of the method: as §2
# [14] = test system: E. coli ATCCBAA-200; test: MIC, CLSI broth microdilution, Test Example 2; conditions: Escherichia coli, ATCCBAA200; SHV-4 ESBL producing strain; cation-adjusted Iso-Sensitest broth containing human Apo-transferrin; 5×10^5 cfu/mL; read-out: Minimum Inhibitory Concentration (MIC) E. coli ATCC BAA-200
# Summary of the method: as §2
# [15] = test system: K. pneumoniae ATCC700603; test: MIC, CLSI broth microdilution, Test Example 2; conditions: Klebsiella pneumoniae, ATCC700603; SHV18 ESBL producing strain; cation-adjusted Iso-Sensitest broth containing human Apo-transferrin; 5×10^5 cfu/mL; read-out: Minimum Inhibitory Concentration (MIC) K. pneumoniae ATCC 700603
# Summary of the method: as §2
structure (smiles),measurement,setting,value
CC(C)(O/N=C(\C(=O)N[C@@H]1C(=O)N2C(c3nnn[n-]3)=C(C[N+]3(C)[C@@H]4CC[C@H]3C[C@@H](NC(=O)c3ccc(O)c(O)c3Cl)C4)CS[C@H]12)c1nc(N)sc1Cl)C(=O)[O-].[Na+] (stereo partly drawn) [Compound I-86],MIC,[1],0.25 µg/mL
same,MIC,[2],≤ 0.031 µg/mL
same,MIC,[3],0.063 µg/mL
same,MIC,[4],0.5 µg/mL
same,MIC,[5],0.5 µg/mL
same,MIC,[6],2 µg/mL
same,MIC,[7],0.063 µg/mL
same,MIC,[8],4 µg/mL
same,MIC,[9],≤ 0.031 µg/mL
same,MIC,[10],0.5 µg/mL
same,MIC,[11],0.125 µg/mL
same,MIC,[12],8 µg/mL
same,MIC,[13],0.5 µg/mL
same,MIC,[14],1 µg/mL
same,MIC,[15],0.25 µg/mL
